Measurements from patent US10525063B2, “Methods of reducing mammographic breast density and/or breast cancer risk” (HAVAH THERAPEUTICS PTY LTD., priority 2014, dated 2020).
Like-named read-outs stand apart in the source and are kept apart here.

Assays:
[1] = cited from earlier work
[2] = Serum anastrozole by liquid chromatography-tandem mass spectrometry; format: in vivo, human; conditions: for concentration at 3 month / concentration at 1 month: human, serum
Procedure: FAI is calculated from a formula where the serum measurement of total testosterone and sex hormone binding globulin are calculated by radio immunoassay. Aromatase inhibitor serum level is determined by liquid chromatography-tandem mass spectrometry.
All thirty having serum drawn at baseline and at 1 year for serum testosterone and sex hormone binding globulin so that free-androgen index could be calculated (FAI=the ratio of the total testosterone level divided by the sex hormone binding globulin level, and then multiplied by a 100 to give a percentage).

[3] = test system: mammographic breast density; conditions: background statement; cited from earlier work

Compound: CCCCCCCCCCC(=O)O[C@H]1CC[C@H]2[C@@H]3CCC4=CC(=O)CC[C@]4(C)[C@H]3CC[C@]12C [testosterone undecanoate]
- Oral bioavailability ([1]; by-passes the liver via the lymphatic system): orally bioavailable

Compound: CC(C)(C#N)c1cc(Cn2cncn2)cc(C(C)(C)C#N)c1 [anastrozole, 2,2′-[5-(1H-1,2,4-triazol-1-ylmethyl)-1,3-phenylene]bis(2-methylpropanenitrile)]
- Serum anastrazole (ng/ml) End 1st year 3 month trough, median (range) ([2]; Example 2, 30 patients, s.c. testosterone and anastrozole at 4 months intervals): 32 (22-39) ng/ml
- concentration at 3 month ([2]; female, sc, Example 2, 30 patients, s.c. testosterone and anastrozole at 4 months intervals, read-out: Serum anastrazole (ng/ml) 1st 3 month trough, median (range)): 27 ng/mL
- concentration at 1 month ([2]; sc, Serum anastrozole, Example 1, Pellet 1 (testosterone 59 mg, anastrozole 2.75 mg, s.c.)): 38 ng/mL
- concentration at 3 month ([2]; sc, Serum anastrozole, Example 1, Pellet 1 (testosterone 59 mg, anastrozole 2.75 mg, s.c.), 3 month): 28 ng/mL
- concentration at 1 month ([2]; subcutaneous, Serum anastrozole, Example 1, Pellet 2 (testosterone 71 mg, anastrozole 2.75 mg)): 35 ng/mL
- concentration at 3 month ([2]; subcutaneous, Serum anastrozole, Example 1, Pellet 2 (testosterone 71 mg, anastrozole 2.75 mg), 3 month): 25 ng/mL
- concentration at 1 month ([2]; subcutaneous, Serum anastrozole, Example 1, Pellet 3 (testosterone 71 mg, anastrozole 2.75 mg)): 38 ng/mL
- concentration at 3 month ([2]; subcutaneous, Serum anastrozole, Example 1, Pellet 3 (testosterone 71 mg, anastrozole 2.75 mg), 3 month): 28 ng/mL

Compound: CC/C(=C(\c1ccccc1)c1ccc(OCCN(C)C)cc1)c1ccccc1 [tamoxifen]
- Effect on mammographic breast density [3]: has been shown to reduce mammographic breast density

Compound: C[C@]12CC[C@H]3[C@@H](CCC4=CC(=O)CC[C@@]43C)[C@@H]1CC[C@@H]2O [testosterone]
- Fraction broken down in the liver as it is absorbed from the gut ([1]; oral delivery): 80-90%
- Fraction broken down in the intestines by aromatase and other metabolic pathways ([1]; oral): approximately 85%
